Experimental data from patent US20190060428A1, “FORMULATIONS FOR NEOPLASIA VACCINES AND METHODS OF PREPARING THEREOF” (The Broad Institue Inc., priority 2015, published 2019).

assay: physchem; conditions: pH 6

Substance | solubility
H-FPVVQSTEDVFPQGLPNEYAFVT-OH | > 2000 µg/mL
H-FVGKLQRHPVAVDVLL-OH | > 2000 µg/mL
H-FYSNSTVSETQWKVTVTPR-OH | > 2000 µg/mL
H-GAVGATKVPRNQDWL-OH | > 2000 µg/mL
H-GDQYKATDFVADWAGTFKMVFTPKDGSG-OH | > 2000 µg/mL
H-GHQKLPGKIHLFEAEFTQVAKKEPDG-OH | > 2000 µg/mL
H-GLEQLESIINFEKL-OH | > 2000 µg/mL
H-GLEQLESIINFEKLTEWTSS-OH | < 2000 µg/mL
H-GLTRISIQRAQPLPPCLPSFRPPTALQGLS-OH | > 2000 µg/mL
H-GPLQLPVTRKNMPLPGVVKLPPLPGS-OH | > 2000 µg/mL
H-GRMSPSQFARVPGYVGSPLAAMNPK-OH | > 2000 µg/mL
H-GSGALGAVGATKVPRNQDWL-OH | > 2000 µg/mL
H-GSGSQMPAWRTRGAISASSTQKTPTTRL-OH | > 2000 µg/mL
H-GSTLSPVPWLPSEEFTLWSSLSPPG-OH | > 2000 µg/mL
H-GSVLQFMPFTTVSELMKVSAMSSPKV-OH | > 2000 µg/mL
H-GSYLVALGAHTGEES-OH | > 2000 µg/mL
H-GTEPEPAFQDDAVNAPLEFKMAAGSSG-OH | > 2000 µg/mL
H-GTKALQLHSIAGRWPRMEPWVVESMSLGVP-OH | > 2000 µg/mL
H-HKSIGQPKLSTHPFLCPKPQKMNTSLGQHLTL-OH | > 2000 µg/mL
H-HLLQKQTSIQSPSLYGNSSPPLNK-OH | > 2000 µg/mL
H-HRPRPFSPGKQVSSAPLFMLDLYN-OH | > 2000 µg/mL
H-IAMGFPQKDLKAYTGTIL-OH | > 2000 µg/mL
H-IGALNPKRAAFFAEHYESWE-OH | < 2000 µg/mL
H-ISSLFVSYFLYRVVFHFE-OH | < 2000 µg/mL
H-KAHVEGDGVVEEIIRYHPFLYDRET-OH | < 2000 µg/mL
H-KGASLDAGWGSPRWTTTRMTSASAGRSTRA-OH | > 2000 µg/mL
H-KGEKNGMTFSSTKDYVNNV-OH | > 2000 µg/mL

Substance | solubility
H-KHLPGVNFPGNQWNPVEGILPS-OH | > 2000 µg/mL
H-KKNITNLSRLVVRPDTDAVY-OH | > 2000 µg/mL
H-KLAWRGRISSSGCPSMTSPPSPMFGMTLHT-OH | > 2000 µg/mL
H-KLRTIPLSDNTIFRRICTIAKHLE-OH | > 2000 µg/mL
H-KMQRRNDDKSILMHGLVSLRESSRG-OH | > 2000 µg/mL
H-KQGWTTEGIWKDVYIIKL-OH | < 2000 µg/mL
H-KQYLDHSGNLMSMHNIKIFMFQLLRG-OH | < 2000 µg/mL
H-LARDIPPAVTGKWKLSDLRRYGAVPSG-OH | > 2000 µg/mL
H-LEEVAQRSHAVRSPGSPLILEVG-OH | > 2000 µg/mL
H-LENNANHDETSFLLPRKESNIVD-OH | > 2000 µg/mL
H-LGETMGQVTEKLQPTYMEET-OH | > 2000 µg/mL
H-LHFIMPEKFSFWEDFEE-OH | < 2000 µg/mL
H-LHTHYDYVSALHPVSTPSKEYTSA-OH | > 2000 µg/mL
H-LKEMNEKVSFIKNSLLSLDSQVGHLQD-OH | < 2000 µg/mL
H-LLDILDTAGREEYSAMRDQYMRT-OH | > 2000 µg/mL
H-LLTDRNTSGTTFTLLGVSDYPELQVPLFLVFLA-OH | > 2000 µg/mL
H-LMGRLQHTFKQKMTGVGASLEKR-OH | > 2000 µg/mL
H-LMSNLAFADFCMRMYL-OH | < 2000 µg/mL
H-LNTGLFRIKFKEPLENLI-OH | > 2000 µg/mL
H-LNYLRTAKFLEMYGVDLHPVYG-OH | < 2000 µg/mL
H-LPDEVSGLEQLESIINFEKL-OH | > 2000 µg/mL
H-LPDEVSGLEQLESIINFEKLTEWTSSNVME-OH | > 2000 µg/mL
H-LPVFIGNIAVNHAPVSLRPGLGLPPGAPPGTVP-OH | > 2000 µg/mL
H-LRVFIGNIAVNHAPVSLRPGLGLPPGAPPGTVP-OH | < 2000 µg/mL
H-LSPREEFLRLCKKIMMRSIQ-OH | > 2000 µg/mL
H-LSVPFTCGVNFGDSIEDLEI-OH | > 2000 µg/mL
H-LTKLKFSLKKSFNFFDEYF-OH | < 2000 µg/mL

Substance | solubility
H-LVGQLKRVPRTGRVYRNVQRPESVS-OH | > 2000 µg/mL
H-MAGPKGFQYRALYPFRRER-OH | > 2000 µg/mL
H-MPPPGALMGLALKKKSIPQPTN-OH | > 2000 µg/mL
H-MSQDIKKADEQIESMTYSTERKT-OH | > 2000 µg/mL
H-NHSAKFLKELTLAMDELEENFRG-OH | < 2000 µg/mL
H-NILHQEELIAQKKWEIEAKMEQK-OH | > 2000 µg/mL
H-NNGPVTILQRIHHMAASHVNITS-OH | < 2000 µg/mL
H-NNQTNSPTTPNFGSSGSFNLPNSGD-OH | > 2000 µg/mL
H-NNSKKKWFLFQDSKKIQVEQPQ-OH | > 2000 µg/mL
H-NQVLASRYGIRGFSTIKIFQKGESPV-OH | > 2000 µg/mL
H-PAAVDSVTIPPAQCYLSLLHL-OH | > 2000 µg/mL
H-PAHPSQGAVPPSRAAAEPHLKPSPSELQTA-OH | > 2000 µg/mL
H-PAPPPAVPKEHPAPPAPPPASAPTP-OH | > 2000 µg/mL
H-PASAKSRREFDKIELAYRR-OH | > 2000 µg/mL
H-PENDDLFMMPRIVDVTSLATEGG-OH | > 2000 µg/mL
H-PGGDSGELITDAHELGVAHPPGY-OH | > 2000 µg/mL
H-PLMQTELHQLVPEADPEEMA-OH | > 2000 µg/mL
H-PRVDLQGAELWKRLHEIGTEMIITK-OH | > 2000 µg/mL
H-PSTANYNSFSSAPMPQIPVASVTPT-OH | > 2000 µg/mL
H-RARQILIASHLPFYELRHNQVES-OH | > 2000 µg/mL
H-RGQIKLADFRLARLYSSEESR-OH | > 2000 µg/mL
H-RLVLGKFGDLTNNFSSPHAR-OH | > 2000 µg/mL
H-RPAGRTQLLWTPAAPTAMAEVGPGHTP-OH | > 2000 µg/mL
H-RQRRGRLGLPGEAGLEGFEPSDALGPD-OH | > 2000 µg/mL
H-RRGGALFASRPRFTPL-OH | > 2000 µg/mL
H-RYNSTAATNEVSEVTVFSKSPVT-OH | > 2000 µg/mL
H-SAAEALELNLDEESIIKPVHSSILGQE-OH | > 2000 µg/mL

Substance | solubility
H-SAVSAASIPAEHINQATNGGGS-OH | > 2000 µg/mL
H-SAVSAASIPAMHINQATNGGGS-OH | < 2000 µg/mL
H-SDAFSGLTALPQSILLFGP-OH | > 2000 µg/mL
H-SEIDFPMARSKLLKKKLPSKDL-OH | > 2000 µg/mL
H-SERYIGTEGGGMDQSILFLAEEGTAK-OH | < 2000 µg/mL
H-SGARIGAPPPHATATSSSSFMPGTWGREDL-OH | > 2000 µg/mL
H-SGQPAPEETVLFLGLLHGLLLILRRLRGG-OH | < 2000 µg/mL
H-SGSPPLRVSVGDFSQEFSPIQEAQQD-OH | > 2000 µg/mL
H-SHHTHSYQRYSHPLFLPGHRLDPPI-OH | > 2000 µg/mL
H-SHLASLKNNVSPVLRSHSFSDPSPKFA-OH | > 2000 µg/mL
H-SHNELADSGIPENSFNVSSLVE-OH | > 2000 µg/mL
H-SHQIHSYQLYTHPLLHPWDHRD-OH | > 2000 µg/mL
H-SHTQTTLFHTFYELLIQKNKHK-OH | > 2000 µg/mL
H-SKRGVGAKTLLLPDPFLFWPCLEGTRRSL-OH | > 2000 µg/mL
H-SLRNNMFEISDRFIGIYKTYNITK-OH | > 2000 µg/mL
H-SLTEESGGAVAFFPGNLSTSSSA-OH | > 2000 µg/mL
H-SMWKGELYRQNRFASSKESAKLYGS-OH | < 2000 µg/mL
H-SPIKLVQKVASKIPFPDRITEESV-OH | > 2000 µg/mL
H-SPQSGGAATLAAQARLQPVHLDVWGEHERG-OH | > 2000 µg/mL
H-SQSSTPAMLFPAPAAHRTLTYLSQ-OH | > 2000 µg/mL
H-SRLQTRKNKKLALSSTPSNIAPSD-OH | > 2000 µg/mL
H-SRNTGHLHPTPRFPLLRWTQEPQPLE-OH | > 2000 µg/mL
H-SSELTAVNFPSFHVTSLKLMVSPTS-OH | > 2000 µg/mL
H-SSPLGRANGRRFANPRDSFSAMGFQR-OH | > 2000 µg/mL
